For the assay, the system named is 231/LM2-4 human breast cancer cells. The assay is described as follows: Advanced metastatic breast cancer model (231/LM2-4), survival after primary tumor resection. It counts as in vivo, CB-17 SCID mice. The conditions noted are these: for Median survival: therapy initiated 19 days after resection. From the text:
The original cell line, MDA-MB 231, was a gift from Dr. Jeffrey F. Lemontt in September, 1989, together with other variants of this cell line. Cell line 231/LM2-4 (human breast cancer cells) used in the study was derived by one of the inventors as described in Munoz R, Man S, Shaked Y, et al. Highly efficacious non-toxic treatment for advanced metastatic breast cancer using combination UFT-cyclophosphamide metronomic chemotherapy, Cancer Res 2006; 66:3386-91.
Two million 231/LM2-4 human breast cancer cells were implanted into the mammary fat pad of 6-8 week old female CB-17 SCID mice purchased from Charles River Canada. Twenty days later when tumor volumes were approximately 400 mm^3, the primary tumors were surgically resected. Therapy was initiated 19 days after resection when visceral metastases were established in sites such as lung and liver. Mice were randomized into groups of 4 and treated as follows: 1) Control—vehicle; 2) Low dose metronomic oral topotecan; 3) pazopanib; 4) Low dose metronomic oral topotecan+pazopanib; 5) Maximum tolerated dose topotecan; and 6) maximum tolerated dose topotecan+pazopanib. The schedule and doses of drugs used were metronomic oral topotecan 1 mg/kg/d by gavage, maximum tolerated dose topotecan 1.5 mg/kg by gavage for 5 consecutive days followed by 16 days break ip, pazopanib 150 mg/kg/d by gavage, and control mice were given the topotecan vehicle and/or pazopanib vehicle. The oral topotecan and pazopanib preparations were mixed just prior to administration to avoid possible drug interaction. Institutional guidelines for survival endpoint were followed.

For `CC[C@@]1(O)C(=O)OCc2c1cc1n(c2=O)Cc2cc3c(CN(C)C)c(O)ccc3nc2-1` [topotecan, (S)-10-[(dimethylamino)methyl]-4-ethyl-4,9-dihydroxy-1H-pyrano[3′,4′:6,7]indolizino [1,2-b]quinoline-3,14-(4H,12H)-dione], the “Survival benefit compared to control untreated mice (FIG. 1)” value (LDM oral topotecan alone, 1 mg/kg/d by gavage) is “neither low dose metronomic (LDM) oral topotecan alone nor pazopanib alone had any survival benefit”. Further, the Median survival runs as follows: (low dose metronomic (LDM) oral topotecan alone, 1 mg/kg/d by gavage) 56 days; (maximum tolerated dose (MTD) topotecan 1.5 mg/kg for 5 consecutive days followed by 16 days break) 63 days.

These data come from US20170027938A1, “Combination” (Novartis AG, priority 2011, published 2017).
